Source: patent US11472766B2, “Lipid nanoparticle composition” (Suzhou Abogen Biosciences Co., Ltd., priority 2020, dated 2022)

Assays:
[1] = Encapsulation efficiency of lipid nanoparticles (Quant-it Ribogreen RNA quantification assay); format: physicochemical; details: LNP encapsulating hEPO mRNA; Table 3
Experimental: (§1) Briefly, a cationic lipid provided herein, DSPC, cholesterol, and PEG-lipid were solubilized in ethanol at a molar ratio of 50:10:38.5:1.5, and mRNA were diluted in 10 to 50 mM citrate buffer, pH=4. The LNPs were prepared at a total lipid to mRNA weight ratio of approximately 10:1 to 30:1 by mixing the ethanolic lipid solution with the aqueous mRNA solution at a volume ratio of 1:3 using a microfluidic apparatus, total flow rate ranging from 9-30 mL/min. Ethanol were thereby removed and replaced by DPBS using dialysis. Finally, the lipid nanoparticles were filtered through a 0.2 μm sterile filter.
(§2) Lipid nanoparticle size were determined by dynamic light scattering using a Malvern Zetasizer Nano ZS (Malvern UK) using a 173° backscatter detection mode. The encapsulation efficiency of lipid nanoparticles were determined using a Quant-it Ribogreen RNA quantification assay kit (Thermo Fisher Scientific, UK) according to the manufacturer's instructions.

[2] = Apparent pKa of LNP formulations (TNS fluorescence assay); details: LNP cationic lipid/DSPC/cholesterol/DMG-PEG 50/10/38.5/1.5 mol %, Table 3
Experimental: The apparent pKa of each formulation was determined using an assay based on fluorescence of 2-(p-toluidino)-6-napthalene sulfonic acid (TNS). LNP formulations comprising of cationic lipid/DSPC/cholesterol/DMG-PEG (50/10/38.5/1.5 mol %) in PBS were prepared as described above. TNS was prepared as a 300 uM stock solution in distilled water. LNP formulations were diluted to 0.1 mg/ml total lipid in 3 mL of buffered solutions containing 50 mM sodium citrate, 50 mM sodium phosphate, 50 mM sodium borate, and 30 mM sodium chloride where the pH ranged from 3 to 9. An aliquot of the TNS solution was added to give a final concentration of 0.1 mg/ml and following vortex mixing fluorescence intensity was measured at room temperature in a Molecular Devices Spectramax iD3 spectrometer using excitation and mission wavelengths of 325 nm and 435 nm. A sigmoidal best fit analysis was applied to the fluorescence data and the pKa value was measured as the pH giving rise to half-maximal fluorescent intensity.

[3] = system: human erythropoietin (hEPO) mRNA; test: Animal study: hEPO expression after tail vein injection of LNPs encapsulating hEPO mRNA (serum ELISA); format: in vivo; details: hEPO level, female ICR mice, 0.5 mg/kg, 6 hours post administration, class symbols, Table 3
Experimental: Lipid nanoparticles comprising compounds 1-10 encapsulating human erythropoietin (hEPO) mRNA were systemically administered to 6-8 week old female ICR mice (Xipuer-Bikai, Shanghai) at 0.5 mg/kg dose by tail vein injection and mice blood were sampled at specific time points (e.g., 6 hours) post administration. In addition to the aforementioned tested groups, lipid nanoparticles comprising dilinoleylmethyl-4-dimethylaminobutyrate (DLin-MC3-DMA, usually abbreviated to MC3) encapsulating hEPO mRNA were similarly administered at the same dose to age and gender comparative groups of mice as a positive control.
Mice were euthanized by CO2 overdoses after the last sampling time point. Serum were separated from total blood by centrifugation at 5000 g for 10 minutes at 4° C., snap-frozen and stored at −80° C. for analysis. ELSA assay were carried out using a commercial kit (DEP00, R&D systems) according to manufacturer's instructions.
Characteristics of tested lipid nanoparticles, including hEPO expression levels (μg/ml) measured from the tested group are listed the tables below and plotted in FIG. 2.

[4] = Lipid nanoparticle size by dynamic light scattering (Malvern Zetasizer Nano ZS); format: physicochemical; details: LNP: cationic lipid/DSPC/cholesterol/PEG-lipid 50:10:38.5:1.5, hEPO mRNA; Table 3
Experimental: as §1, §2

SMILES	Encapsulation Efficiency [1] [%]	Apparant Pka [2]	Expression at 6 h (μg/ml) [3]	polydispersity [4]	size nm [4] [nm]
CCCCCCCCC(CCCCCC)COC(=O)CCCCCN(CCCCCC(=O)OCC(CCCCCC)CCCCCCCC)C(=O)CN(CCO)C1CCC1 (stereo not shown) [Compound 11]	90.9	5.662	D (<0.1)	0.109	67.23
CCCCCCCCC(CCCCCC)COC(=O)CCCCCN(CCCCCC(=O)OCC(CCCCCC)CCCCCCCC)C(=O)CCN(CCO)C1CCC1 (stereo not shown) [Compound 12]	99.80	5.801	D (<0.1)	0.015	75.86
CCCCCCCCC(CCCCCC)COC(=O)CCCCCN(CCCCCC(=O)OCC(CCCCCC)CCCCCCCC)C(=O)CCCN(CCO)C1CCC1 (stereo not shown) [Compound 13]	96.8	7.206	C (≥0.1 and <1)	0.095	89.96
CCCCCCCCC(CCCCCC)COC(=O)CCCCCC(CCCCCC(=O)OCC(CCCCCC)CCCCCCCC)CN(C)CCO (stereo not shown) [Compound 14]	94.9	9.356	C (≥0.1 and <1)	0.172	60.13
CCCCCCCCC(CCCCCC)COC(=O)CCCCCC(CCCCCC(=O)OCC(CCCCCC)CCCCCCCC)CN(CCO)C1CCC1 (stereo not shown) [Compound 15]	89.8	9.21	D (<0.1)	0.313	51.17
CCCCCCCCC(CCCCCC)COC(=O)CCCCCC(CCCCCC(=O)OCC(CCCCCC)CCCCCCCC)CN(CC)CCO (stereo not shown) [Compound 16]	98.87	4.403	D (<0.1)	0.225	54.69
CCCCCCCCC(CCCCCC)COC(=O)CCCCCC(CCCCCC(=O)OCC(CCCCCC)CCCCCCCC)CCCN(C)CCO (stereo not shown) [Compound 18]	100.16	6.327	C (≥0.1 and <1)	0.15	71.85
CCCCCCCCC(CCCCCC)CC(=O)OCCCCCN(CCCCCOC(=O)CC(CCCCCC)CCCCCCCC)CCN(CCO)C1CCC1 (stereo not shown) [Compound 20]	98.1	6.252	A (≥2)	0.103	76.79
CCCCCCCCC(CCCCCC)COC(=O)CCCCCN(CCCCCC(=O)OCC(CCCCCC)CCCCCCCC)CCN(CCO)C1CCC(O)CC1 (stereo not shown) [Compound 21]	100.6	7.652	D (<0.1)	0.077	75.26
CCCCCCCCC(CCCCCC)COC(=O)CCCCCN(CCCCCC(=O)OCC(CCCCCC)CCCCCCCC)CCN(CCO)C1CC(O)C1 (stereo not shown) [Compound 22]	98.3	6.884	D (<0.1)	0.081	71.2
CCCCCCCCC(CCCCCC)CC(=O)COCCCCN(CCCCCOC(=O)CC(CCCCCC)CCCCCCCC)CCN(CCO)C1CC1 (stereo not shown) [Compound 24]	95.4	6.087	C (≥0.1 and <1)	0.077	64.96
CCCCCCCCC(CCCCCC)CC(=O)COCCCCN(CCCCCOC(=O)CC(CCCCCC)CCCCCCCC)CCN(CCO)C1CCCC1 (stereo not shown) [Compound 25]	96.7	6.334	A (≥2)	0.032	74.3
CCCCCCCCC(CCCCCC)CC(=O)COCCCCN(CCCCCOC(=O)CC(CCCCCC)CCCCCCCC)CCN(CCO)C1CCCCCC1 (stereo not shown) [Compound 27]	96.7	6.153	C (≥0.1 and <1)	0.133	58.44
CCCCCCCCC(CCCCCC)COC(=O)CCCCCN(CCCCCC(=O)OCC(CCCCCC)CCCCCCCC)CCN(CCCO)C1CCC1 (stereo not shown) [Compound 28]	96.5	6.529	A (≥2)	0.002	79.82
CCCCCCCCC(CCCCCC)COC(=O)CCCCCN(CCCCCC(=O)OCC(CCCCCC)CCCCCCCC)CCN(CCCCO)C1CCC1 (stereo not shown) [Compound 29]	97.2	6.477	A (≥2)	0.078	85.17
CCCCCCCCC(CCCCCC)COC(=O)CCCCCN(CCCCCC(=O)OCC(CCCCCC)CCCCCCCC)CCN(CCCCCCCCO)C1CCC1 (stereo not shown) [Compound 31]	92.4	5.822	C (≥0.1 and <1)	0.076	71.64
CCCCCCCCC(CCCCCC)COC(=O)CCCCCN(CCCCCC(=O)OCC(CCCCCC)CCCCCCCC)CCN(CC(C)O)C1CCC1 (stereo not shown) [Compound 32]	94.3	5.941	C (≥0.1 and <1)	0.039	77.76
CCCCCCCCC(CCCCCC)COC(=O)CCCCCN(CCCCCC(=O)OCC(CCCCCC)CCCCCCCC)CCN(CC(O)CCCC)C1CCC1 (stereo not shown) [Compound 33]	94.5	5.315	D (<0.1)	0.091	62.2
CCCCCCCCC(O)CN(CCN(CCCCCC(=O)OCC(CCCCCC)CCCCCCCC)CCCCCC(=O)OCC(CCCCCC)CCCCCCCC)C1CCC1 (stereo not shown) [Compound 34]	96.1	5.29	D (<0.1)	0.095	63.32
CCCCCCCCC(CCCCCC)COC(=O)CCCCCN(CCCCCC(=O)OCC(CCCCCC)CCCCCCCC)CCN(CCO)C1CCC1 (stereo not shown) [Compound 35]	94.8	5.945	C (≥0.1 and <1)	0.086	60.58
CCCCCCCCC(CCCCCC)COC(=O)CCCCN(CCCCC(=O)OCC(CCCCCC)CCCCCCCC)CCN(CCO)C1CCC1 (stereo not shown) [Compound 36]	98.3	5.907	A (≥2)	0.065	70.36
CCCCCCCCC(CCCCCC)COC(=O)CCCCCCN(CCCCCCC(=O)OCC(CCCCCC)CCCCCCCC)CCN(CCO)C1CCC1 (stereo not shown) [Compound 37]	97.0	6.205	A (≥2)	0.034	84.26
CCCCCCCCC(CCCCCC)C(C)OC(=O)CCCCCN(CCCCCC(=O)OC(C)C(CCCCCC)CCCCCCCC)CCN(CCO)C1CCC1 (stereo not shown) [Compound 38]	98.7	6.172	C (≥0.1 and <1)	0.167	65.94
